Measurements taken from US20230122344A1, “ANTAGONISTS OF THE MUSCARINIC ACETYLCHOLINE RECEPTOR M4” (Vanderbilt University, priority 2019, published 2023).

Target: T1, Human M4 (Homo sapiens, UniProt P08173)
T1 construct: expressed in transfected cells; host or cells: CHO-K1 (ATCC), co-transfected with chimeric G protein Gqi5
T1 sequence (P08173 1-479): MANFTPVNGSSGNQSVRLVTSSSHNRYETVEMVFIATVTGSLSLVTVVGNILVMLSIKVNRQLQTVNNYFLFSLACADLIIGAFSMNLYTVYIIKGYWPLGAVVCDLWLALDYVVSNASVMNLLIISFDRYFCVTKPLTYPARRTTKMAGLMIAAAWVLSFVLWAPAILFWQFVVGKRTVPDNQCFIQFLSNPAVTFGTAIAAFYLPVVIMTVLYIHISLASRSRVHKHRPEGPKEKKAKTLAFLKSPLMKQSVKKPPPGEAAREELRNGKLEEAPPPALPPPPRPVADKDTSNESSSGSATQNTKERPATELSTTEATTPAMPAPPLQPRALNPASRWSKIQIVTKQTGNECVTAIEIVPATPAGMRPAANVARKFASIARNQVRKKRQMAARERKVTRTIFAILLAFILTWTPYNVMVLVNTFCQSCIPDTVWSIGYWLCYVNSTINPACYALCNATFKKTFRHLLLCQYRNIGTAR
Experiment: mAChR M4 cell-based functional assay (calcium flux, antagonism of EC80 acetylcholine response)
Settings: M4/Gqi5/CHO-K1 cells; for remaining activity at 30 µM: CHO-K1, % ACh maximum at 30 μM, read-out: Human M4 Emin; for IC50: decrease of response elicited by EC80 acetylcholine
In short: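 CHO-K1 cells stably expressing human or rat M4 with Gqi5, Fluo-4 loaded; calcium measured by fluorescence ratio on FDSS. Compound added, then EC20 acetylcholine at 143 s and EC80 at 268 s; IC50 from decrease of EC80 response, four-parameter logistic fit.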

remaining activity at 30 µM [%]	IC50 [µM]	SMILES
4	0.00343	Cc1c(-c2ccc(F)cc2)nnc(N[C@H]2C[C@@H]3CN(CC4CCOCC4)C[C@@H]3C2)c1C#N [compound 73, 6-(4-fluorophenyl)-5-methyl-3-(((3aR,5s,6aS)-2-((tetrahydro-2H-pyran-4-yl)methyl)octahydrocyclopenta[c]pyrrol-5-yl)amino)pyridazine-4-carbonitrile]
2	0.159	[2H]C([2H])(C1CCOCC1)N1C[C@H]2C[C@H](Nc3nnc(-c4cc(F)ccc4C)c(C)c3C(F)(F)F)C[C@H]2C1 [compound 74, (3aR,5s,6aS)-N-(6-(5-fluoro-2-methylphenyl)-5-methyl-4-(trifluoromethyl)pyridazin-3-yl)-2-((tetrahydro-2H-pyran-4-yl)methyl-d2)octahydrocyclopenta[c]pyrrol-5-amine]
3	0.0209	[2H]C([2H])(C1CCOCC1)N1C[C@H]2C[C@H](Nc3nnc(-c4cc(F)ccc4F)c(C)c3C(F)(F)F)C[C@H]2C1 [compound 75, (3aR,5s,6aS)-N-(6-(2,5-difluorophenyl)-5-methyl-4-(trifluoromethyl)pyridazin-3-yl)-2-((tetrahydro-2H-pyran-4-yl)methyl-d2)octahydrocyclopenta[c]pyrrol-5-amine]
3	0.0121	[2H]C([2H])(C1CCOCC1)N1C[C@H]2C[C@H](Nc3nnc(-c4ccccc4)c(C)c3C(F)(F)F)C[C@H]2C1 [compound 76, (3aR,5s,6aS)-N-(5-methyl-6-phenyl-4-(trifluoromethyl)pyridazin-3-yl)-2-((tetrahydro-2H-pyran-4-yl)methyl-d2)octahydrocyclopenta[c]pyrrol-5-amine]
2	0.0835	[2H]C([2H])(C1CCOCC1)N1C[C@H]2C[C@H](Nc3nnc(-c4cc(F)cc(F)c4F)c(C4CC4)c3C(F)(F)F)C[C@H]2C1 [compound 77, (3aR,5s,6aS)-N-(5-cyclopropyl-4-(trifluoromethyl)-6-(2,3,5-trifluorophenyl)pyridazin-3-yl)-2-((tetrahydro-2H-pyran-4-yl)methyl-d2)octahydrocyclopenta[c]pyrrol-5-amine]
4	0.23	OC1(CN2C[C@H]3C[C@H](Nc4nnc(-c5cc(F)ccc5F)cc4C(F)F)C[C@H]3C2)CCOCC1 [compound 78, 4-(((3aR,5s,6aS)-5-((4-(difluoromethyl)-6-(2,5-difluorophenyl)pyridazin-3-yl)amino)hexahydrocyclopenta[c]pyrrol-2(1H)-yl)methyl)tetrahydro-2H-pyran-4-ol]
4	0.11	CC1(CN2C[C@H]3C[C@H](Nc4nnc(-c5cc(F)ccc5F)cc4C(F)F)C[C@H]3C2)CCOCC1 [compound 79, (3aR,5s,6aS)-N-(4-(difluoromethyl)-6-(2,5-difluorophenyl)pyridazin-3-yl)-2-((4-methyltetrahydro-2H-pyran-4-yl)methyl)octahydrocyclopenta[c]pyrrol-5-amine]
4	0.005	Fc1ccc(F)c(-c2cc(C(F)F)c(N[C@H]3C[C@@H]4CN(C[C@@H]5COCCO5)C[C@@H]4C3)nn2)c1 [compound 80, (3aR,5S,6aS)-2-(((R)-1,4-dioxan-2-yl)methyl)-N-(4-(difluoromethyl)-6-(2,5-difluorophenyl)pyridazin-3-yl)octahydrocyclopenta[c]pyrrol-5-amine]
4	0.18	Fc1ccc(F)c(-c2cc(C(F)F)c(N[C@H]3C[C@@H]4CN(C[C@H]5COCCO5)C[C@@H]4C3)nn2)c1 [compound 81, (3aR,5R,6aS)-2-(((S)-1,4-dioxan-2-yl)methyl)-N-(4-(difluoromethyl)-6-(2,5-difluorophenyl)pyridazin-3-yl)octahydrocyclopenta[c]pyrrol-5-amine]
